The text below walks through data of ChEMBL document CHEMBL1201862, “PubChem BioAssay data set” (2004).

Among the test systems are MDA-N; Hs-578T; BT-549; KM-20L2; DMS-114; LXFL 529; HOP-18.
Holding throughout (experiment): DTP human tumour cell line panel, 48 h

Structures are written as SMILES.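 Five compound concentrations were applied to cells in 96-well plates for 48 hours; endpoints were derived by simple linear interpolation of the resulting dose-response curve. Abbreviation: GI50, concentration required for 50% inhibition of growth.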 Active and inactive are the calls of the source. Rule as the data show it: active = GI50 up to about 1.1 µM and inactive = higher. Positions of bridges follow the written chain, without caps; N, C: chain ends. Non-standard residues stand in square brackets, D forms with d. Residues, ends and D or L forms follow the SMILES beside them. Aib = CC(C)(N)C(=O)O; βAla = NCCC(=O)O

Consider `O=C1/C(=C/c2ccc([N+](=O)[O-])cc2)CNC/C1=C\c1ccc([N+](=O)[O-])cc1`, for which the values for the GI50 in the assay with MDA-N, in the assay on Hs-578T and with BT-549 were 6.27 µM (inactive), 4.36 µM (inactive) and 2.69 µM (inactive), respectively.

As to `CCOP(=O)(OCC)/C(=C/n1c(=S)[nH]c2ccccc21)C(=O)OC`, the GI50 is > 100 µM (inactive) with MDA-N, 95.1 µM (inactive) with Hs-578T and > 100 µM (inactive) in the assay with BT-549.

For `Oc1ccc(-c2ccccc2)nn1`, the GI50 in the assay on MDA-N, in the assay on Hs-578T and in the assay with BT-549 was > 100 µM (inactive) throughout.

For the compound `CC1(C)NC(=O)C(NC(=O)C(N)CC(=O)O)CCCCNC(=O)CCNC1=O` (stereo not given) (H-DK[Aib][βAla]; lactam 2-C; configuration not given here), the GI50 in the assay on MDA-N, in the assay with Hs-578T and with BT-549 was > 100 µM (inactive) each time.

Consider `CC(=O)OC1COC(n2nc(N)nc2C)C(OC(C)=O)C1OC(C)=O` (stereo not given), for which the GI50 with MDA-N and with BT-549 was > 100 µM (inactive) in each case.

Consider `O=C(Nc1ccc(Cl)cc1Cl)C1C(=O)C(=O)N(c2ccc(Cl)cc2Cl)C1=O` (stereo not given), for which the GI50 in the assay on KM-20L2, with DMS-114, with LXFL 529 and with HOP-18 was > 100 µM (inactive) in each case.

For the compound `Fc1ccc(F)c(C2SCc3nc4ccccc4n32)c1` (stereo not given), the GI50 in the assay on KM-20L2 is > 100 µM (inactive); in the assay with DMS-114, 23.5 µM (inactive); in the assay with LXFL 529, 53.3 µM (inactive); with HOP-18, 89.1 µM (inactive).

In the case of `CCc1nc(N)nc(N)c1-c1ccc2nnn(O)c2c1`, the GI50 with MDA-N, in the assay on Hs-578T and in the assay with BT-549 was > 100 µM (inactive) each time.

`CN1C(=O)c2ccc3ccccc3c2C1=O`: the figures for the GI50 in the assay on MDA-N, in the assay with Hs-578T and with BT-549 were > 100 µM (inactive), 73.1 µM (inactive) and > 100 µM (inactive), respectively.

For the compound `Cc1csc2nc3c(cnn3C)c(=S)n12`, the GI50 in the assay on MDA-N was > 100 µM (inactive); with Hs-578T it was 12.8 µM (inactive); with BT-549, 39.5 µM (inactive).

As for `COc1nc2c(c(=O)n1C)N(C(C)=O)C1C(N2)OCC(OC(C)=O)C1OC(C)=O` (stereo not given), the GI50 in the assay with MDA-N, in the assay on Hs-578T and in the assay with BT-549 was > 10 µM (inactive) each time.

Turning to `CSC1(SC)CCCCCCCCCCC1`, the GI50 with MDA-N is 42.8 µM (inactive); in the assay on Hs-578T it was 43.1 µM (inactive); with BT-549 it was 60.3 µM (inactive).

On to `COc1ccc2c(c1)/C(=C(\C(Cl)=C(Cl)Cl)[N+](=O)[O-])N2`, for which the GI50 with MDA-N was 83.2 µM (inactive); with Hs-578T, 80.2 µM (inactive); with BT-549, 49.7 µM (inactive).

With `COC(=O)C1C2C=CC(C2)N1[C@@H](C)c1ccccc1` (stereo not given in full), the GI50 in the assay on KM-20L2, in the assay with LXFL 529 and in the assay on HOP-18 was > 100 µM (inactive) throughout.

As to `O=C([O-])C(O)C(O)C(O)C(O)C(=O)O.[K+]` (stereo not given), in the assay on MDA-N, the GI50 is > 100 µM (inactive).

Take `COc1ccc([C@H]2CC(=O)C[C@H](c3ccc(OC)cc3)C23C(=O)c2ccccc2C3=O)cc1`: the GI50 in the assay with MDA-N is 2.07 µM (inactive); in the assay on Hs-578T, 4.78 µM (inactive); in the assay with BT-549, 5.65 µM (inactive).

In the case of `CCOC(=O)N1CC2(C)C=CC1C(C(=O)OC)C2` (stereo not given), the GI50 in the assay on MDA-N, with Hs-578T and with BT-549 was > 100 µM (inactive) each time.

On to `CC(C)[C@@H]1NC(=O)[C@@H]2N=C(O[C@H]2C)[C@H](C(C)C)NC(=O)C2N=C1O[C@H]2C`, for which the GI50 in the assay with MDA-N and with Hs-578T was > 100 µM (inactive) each time.

As to `CCCc1cc(COC)c(C#N)c(O)n1`, the GI50 in the assay with MDA-N, in the assay with Hs-578T and with BT-549 was > 100 µM (inactive) in each case.

On to `CN1CN(c2ccccc2)C2(CCN(CCc3csc4ccccc34)CC2)C1=O`, for which the GI50 with BT-549 was 4.71 µM (inactive).

Regarding `COC(=O)c1ccccc1C1CN=NC12Cc1cccc(C)c1C2=O` (stereo not given), the GI50 was 46.7 µM (inactive) with MDA-N, 40.4 µM (inactive) in the assay with Hs-578T and 42.4 µM (inactive) with BT-549.

On to `C=CCC1(Sc2ccccn2)Sc2ccc3ccccc3c2-c2c(ccc3ccccc23)S1`, for which the GI50 in the assay on Hs-578T is > 100 µM (inactive).

Turning to `OC1=CN=C(C2CC2)Oc2ccccc21`, the values for the GI50 with KM-20L2, in the assay with DMS-114 and with LXFL 529 were > 100 µM (inactive), 41 µM (inactive) and > 100 µM (inactive), respectively.

For the compound `CCOC(=O)C1=C(C(=O)c2ccc(C)cc2)C(c2cccc([N+](=O)[O-])c2)C(C(=O)c2ccc(C)cc2)=C(C(=O)OCC)N1`, the GI50 in the assay on Hs-578T was 22 µM (inactive); in the assay on BT-549 it was 21.1 µM (inactive).

`COc1ccc(CCCNC(=O)Cc2cc(OC)c(OC)cc2CO)cc1OC`: the GI50 in the assay with MDA-N, with Hs-578T and with BT-549 was > 100 µM (inactive) in each case.

As for `O=C(NCCCNCCNC(=O)c1cc(-c2ccccc2)nc2ccccc12)c1cc(-c2ccccc2)nc2ccccc12`, the GI50 in the assay on MDA-N is 1.87 µM (inactive); with Hs-578T it was 2.37 µM (inactive); in the assay with BT-549, 11.6 µM (inactive).

As to `N#CC1C(=O)N(c2ccccc2)NC12OC(=O)c1ccncc12` (stereo not given), the GI50 in the assay with MDA-N and in the assay with BT-549 was > 20 µM (inactive) each time.

As for `O=c1[nH]c2cc(C(F)(F)F)ccc2nc1Cc1ccccc1`, the results for the GI50 in the assay with Hs-578T and in the assay on BT-549 were 34.9 µM (inactive) and > 100 µM (inactive), respectively.

With `CCCCCCCCCCCCCCCCNc1cccc2ccccc12`, the GI50 with KM-20L2, in the assay on DMS-114 and in the assay with LXFL 529 was > 100 µM (inactive) throughout.

Consider `C[N+]1(C)C(c2ccccc2)C(=O)O[B@-]1(F)c1ccccc1` (stereo not given in full), for which the GI50 in the assay on MDA-N and in the assay with BT-549 was > 100 µM (inactive) each time.

As to `CCOC(=O)c1c(Br)c(-c2ccc(OC)cc2)c(Br)n1C`, the GI50 is 11.6 µM (inactive) in the assay on Hs-578T and 22.4 µM (inactive) in the assay on BT-549.

With `CN(C)CC[N+](C)(C)[BH2-]C(O)O`, the GI50 with MDA-N, in the assay with Hs-578T and in the assay with BT-549 was > 100 µM (inactive) in each case.

For `CC1=NN2CCC(=O)N=C2S1`, the GI50 with MDA-N, with Hs-578T and with BT-549 was > 100 µM (inactive) in each case.

For `CC(C)NC(=O)OCCN=C1c2ccccc2C(Br)C(Br)c2ccccc21` (stereo not given), the figures for the GI50 with MDA-N, in the assay on Hs-578T and with BT-549 were 5.85 µM (inactive), 8.41 µM (inactive) and 10.4 µM (inactive), respectively.

With `NC(=O)N=C(NCc1ccccc1)NCc1ccccc1`, the GI50 in the assay on KM-20L2 and in the assay with LXFL 529 was > 100 µM (inactive) in each case.

For the compound `CS/C(=N\S(=O)(=O)c1ccc(Cl)cc1)NCCCCN/C(=N/S(=O)(=O)c1ccc(Cl)cc1)SC`, the GI50 in the assay on MDA-N is > 100 µM (inactive).

With `Cc1nnc(N)nc1/C=C\c1ccc(N(C)C)cc1`, the GI50 in the assay with MDA-N is 17.4 µM (inactive); with Hs-578T it was 5.82 µM (inactive); in the assay with BT-549, > 20.9 µM (inactive).

For `CCOC(=O)Cn1c(C(F)(F)F)nc2nc(Cl)c(Cl)nc21`, the GI50 in the assay with MDA-N is 37.2 µM (inactive); in the assay on Hs-578T, 25 µM (inactive); in the assay on BT-549, 54.8 µM (inactive).

On to `CCCCC/C(C=O)=C\c1ccccc1`, for which the GI50 in the assay on Hs-578T and in the assay with BT-549 was > 100 µM (inactive) throughout.

In the case of `CCC1([N+](=O)[O-])CC2C=CC1C2` (stereo not given), the GI50 with MDA-N, with Hs-578T and in the assay with BT-549 was > 100 µM (inactive) throughout.

Turning to `N#CC(c1ccccc1)N(CCc1ccccc1)C(=O)c1ccccc1` (stereo not given), the GI50 was > 100 µM (inactive) with MDA-N, 26.2 µM (inactive) in the assay on Hs-578T and > 56.2 µM (inactive) in the assay with BT-549.

On to `Cc1ccc(S(=O)(=O)N2CCSCCSCCSCCN(S(=O)(=O)c3ccc(C)cc3)CC2)cc1`, for which the GI50 in the assay with MDA-N, in the assay on Hs-578T and in the assay with BT-549 was > 100 µM (inactive) in each case.

For the compound `C=CCc1cccc2cc(C(=O)NCc3ccccc3)c(=N)oc12`, the figures for the GI50 in the assay on MDA-N, in the assay on Hs-578T and in the assay with BT-549 were 41.4 µM (inactive), 18.8 µM (inactive) and 40.3 µM (inactive), respectively.

As for `CCOC(=O)c1cccc(/N=N/c2ncc(/C=C/C(=O)OC)[nH]2)c1`, the results for the GI50 in the assay on MDA-N, in the assay with Hs-578T and in the assay with BT-549 were 15.7 µM (inactive), 39.9 µM (inactive) and 34.8 µM (inactive), respectively.

With `O=C(NCc1ccccc1)c1cc2ccccc2o/c1=N\c1ccccc1F`, the GI50 with MDA-N is 34.8 µM (inactive); with Hs-578T, 32.1 µM (inactive); in the assay on BT-549, > 100 µM (inactive).

With `C/C(=N/c1[nH]c(=O)cc2c1C(=O)CC2)N(C)C`, the GI50 in the assay on MDA-N, with Hs-578T and in the assay with BT-549 was > 200 µM (inactive) throughout.

As to `CC(C)(C)C1CCC2c3c([nH]c4ccccc34)C3C(=O)N(c4ccccc4[N+](=O)[O-])C(=O)C3C2C1` (stereo not given), the GI50 in the assay with MDA-N was 13.2 µM (inactive); in the assay on Hs-578T it was 14.4 µM (inactive); in the assay with BT-549 it was 21.7 µM (inactive).

As for `CS/C(=N\C#N)NC1CC(n2cc(C)c(=O)[nH]c2=O)OC1CO` (stereo not given), the GI50 in the assay with MDA-N was > 100 µM (inactive).

For `CCOC(=O)CCC(NC(=O)c1ccc(Nc2nc3ccccc3nc2C(=O)OCC)cc1)C(=O)OCC` (stereo not given), the figures for the GI50 in the assay with MDA-N, with Hs-578T and in the assay on BT-549 were 3.89 µM (inactive), 3.1 µM (inactive) and 7.66 µM (inactive), respectively.

Turning to `COc1ccc(/N=N/c2c(C)c(C#N)c(=S)n(C3OC(COC(C)=O)C(OC(C)=O)C(OC(C)=O)C3OC(C)=O)c2-c2ccccc2)cc1` (stereo not given), the results for the GI50 with MDA-N and in the assay on BT-549 were 9.1 µM (inactive) and 5.33 µM (inactive), respectively.

With `COc1ccc2c(c1)C1Oc3ccccc3CC1(O)CO2` (stereo not given), the GI50 in the assay on MDA-N and in the assay on BT-549 was > 100 µM (inactive) throughout.

For `O=c1c2ccccc2c2c1c1c3ccccc3c(=O)c1c1c3ccccc3c(=O)c21`, the GI50 with MDA-N, in the assay with Hs-578T and with BT-549 was > 100 µM (inactive) throughout.

Consider `O=C(O)C(Cc1ccccc1)N1C(=O)N/C(=C\c2ccc(F)cc2)C1=O` (stereo not given), for which the GI50 with LXFL 529 and in the assay with HOP-18 was > 100 µM (inactive) throughout.

Regarding `COc1ccc(CCNC2=CC(=O)c3ncccc3C2=O)cc1OC`, the figures for the GI50 with MDA-N, in the assay with Hs-578T and in the assay with BT-549 were 1.18 µM (inactive), 1.19 µM (inactive) and 1.3 µM (inactive), respectively.

On to `COc1ccc(Nc2nc(N)c(C(=O)c3ccco3)s2)cc1`, for which the GI50 was 4.11 µM (inactive) in the assay with MDA-N, 22.4 µM (inactive) in the assay on Hs-578T and > 67.8 µM (inactive) in the assay with BT-549.

A word on the GI50: it is the concentration giving 50% growth inhibition.
